Laboratory results as given in patent US12516064B2, “Tetrahydropyridopyrimidines and related analogs for inhibiting YAP/TAZ-TEAD” (THE KATHOLIEKE UNIVERSITEIT LEUVEN, priority 2022, dated 2026).

system: YAP/TAZ-TEAD transcription; experiment: Reporter gene assay for measuring the inhibition of YAP/TAZ-TEAD transcription; assay type: cell-based; settings: Homo sapiens, HEK-293T; Hek293T cells transiently transfected with TEAD-responsive element luciferase reporter; 24 hours incubation
Experimental: Hek293T cells are cultured in DMEM supplemented with 10% fetal bovine serum, Sodium pyruvate, Sodium bicarbonate, L-glutamine. The cells are harvested and transiently transfected with TEAD-responsive element luciferase reporter. Transfected cells are plated in 384-wells plate containing pre-diluted compounds. After 24 hours incubation at 37° C./5% CO2, assay plates were cooled down to RT and levelled to an equal volume per well, prior to the addition of 25 uL luciferase substrate SteadyLite (Perkin Elmer)/well. The plate was shaken for 10 min at 600 rpm, centrifuged for 1 min at 500 rpm and measured with an Envision reader (PerkinElmer). The amount of relative light units produced by the TEAD reporter is used to calculated percent of inhibition.
The percent of reporter inhibition was calculated in the presence of a positive control inhibitor (100% inhibition) versus a condition with the presence of the vehicle basal activity of the reporter (0% inhibition). The ability of a test compound to inhibit this activity was determined as: Percentage inhibition=[1−((RLU determined in the presence of vehicle−RLU determined for sample with test compound present) divided by (RLU determined in the presence of vehicle−RLU determined for sample with positive control inhibitor))]*100 The activities of example compounds tested are depicted in Table 8. The activity ranges A, B and C refer to IC50 values in the reporter gene assay as follows: “A”: EC50<1 μM; “B”: 1 μM≤EC50≤3.0 μM and “C”: EC50>3.0 μM, NT=not tested.

EC50 | SMILES
< 1000 nM | C=CC(=O)N1CCc2c(nc(-c3ccc(C(F)(F)F)cc3)nc2-c2ccn(Cc3cccnc3)n2)C1 [Cpd. No. 72, 1-(4-(1-(pyridin-3-ylmethyl)-1H-pyrazol-3-yl)-2-(4-(trifluoromethyl)phenyl)-5,8-dihydropyrido[3,4-d]pyrimidin-7(6H)-yl)prop-2-en-1-one]
1000 to 3000 nM | Cn1ccc(-c2nc(-c3ccc(C(F)(F)F)cc3)nc3c2CCN(C(=O)CC#N)C3)n1 [Cpd. No. 75, 3-(4-(1-methyl-1H-pyrazol-3-yl)-2-(4-(trifluoromethyl)phenyl)-5,8-dihydropyrido[3,4-d]pyrimidin-7(6H)-yl)-3-oxopropanenitrile]
< 1000 nM | C=CC(=O)N1CCc2c(-c3ccn(C)n3)nc(-c3ccc(C(F)(F)F)cc3)nc2C1C (centres unmarked) [Cpd. No. 76, 1-(8-methyl-4-(1-methyl-1H-pyrazol-3-yl)-2-(4-(trifluoromethyl)phenyl)-5,8-dihydropyrido[3,4-d]pyrimidin-7(6H)-yl)prop-2-en-1-one]
1000 to 3000 nM | Cn1ccc(-c2nc(-c3ccc(C(F)(F)F)cc3)nc3c2CCN(C#N)C3)n1 [Cpd. No. 78, 4-(1-methyl-1H-pyrazol-3-yl)-2-(4-(trifluoromethyl)phenyl)-5,8-dihydropyrido[3,4-d]pyrimidine-7(6H)-carbonitrile]
1000 to 3000 nM | Cn1ccc(-c2nc(-c3ccc(C(F)(F)F)cc3)nc3c2CCN(S(C)(=O)=O)C3)n1 [Cpd. No. 79, 4-(1-methyl-1H-pyrazol-3-yl)-7-(methylsulfonyl)-2-(4-(trifluoromethyl)phenyl)-5,6,7,8-tetrahydropyrido[3,4-d]pyrimidine]
< 1000 nM | C=CS(=O)(=O)N1CCc2c(nc(-c3ccc(C(F)(F)F)cc3)nc2-c2ccn(C)n2)C1 [Cpd. No. 80, 4-(1-methyl-1H-pyrazol-3-yl)-2-(4-(trifluoromethyl)phenyl)-7-(vinylsulfonyl)-5,6,7,8-tetrahydropyrido[3,4-d]pyrimidine]
< 1000 nM | C=CC(=O)N1CCc2c(nc(-c3ccc(C(F)(F)F)cc3)nc2-c2nnn(C)n2)C1 [Cpd. No. 81, 1-(4-(2-methyl-2H-tetrazol-5-yl)-2-(4-(trifluoromethyl)phenyl)-5,8-dihydropyrido[3,4-d]pyrimidin-7(6H)-yl)prop-2-en-1-one]
< 1000 nM | C=CC(=O)N1CCc2c(nc(-c3ccc(C(F)(F)F)cc3)nc2-c2nnnn2C)C1 [Cpd. No. 82, 1-(4-(1-methyl-1H-tetrazol-5-yl)-2-(4-(trifluoromethyl)phenyl)-5,8-dihydropyrido[3,4-d]pyrimidin-7(6H)-yl)prop-2-en-1-one]
< 1000 nM | CN(C)C/C=C/C(=O)N1CCc2c(nc(-c3ccc(C(F)(F)F)cc3)nc2-c2ccn(C)n2)C1 [Cpd. No. 83, (E)-4-(dimethylamino)-1-(4-(1-methyl-1H-pyrazol-3-yl)-2-(4-(trifluoromethyl)phenyl)-5,8-dihydropyrido[3,4-d]pyrimidin-7(6H)-yl)but-2-en-1-one]
< 1000 nM | Cn1ccc(-c2nc(-c3ccc(C(F)(F)F)cc3)nc3c2CCN(C(=O)C2=CCCC2)C3)n1 [Cpd. No. 84, cyclopent-1-en-1-yl(4-(1-methyl-1H-pyrazol-3-yl)-2-(4-(trifluoromethyl)phenyl)-5,8-dihydropyrido[3,4-d]pyrimidin-7(6H)-yl)methanone]

Continued, molecule first:

SMILES | EC50
CS(=O)(=O)N1CCc2c(nc(Cc3ccccc3)nc2-c2ccn(Cc3cccnc3)n2)C1 [Cpd. No. 37, 2-benzyl-7-(methylsulfonyl)-4-(1-(pyridin-3-ylmethyl)-1H-pyrazol-3-yl)-5,6,7,8-tetrahydropyrido[3,4-d]pyrimidine] | > 3000 nM
CCC(=O)N1CCc2c(nc(-c3ccccc3)nc2-c2ccn(C)n2)C1 [Cpd. No. 40, 1-(4-(1-methyl-1H-pyrazol-3-yl)-2-phenyl-5,8-dihydropyrido[3,4-d]pyrimidin-7(6H)-yl)propan-1-one] | 1000 to 3000 nM
C=CC(=O)N1CCc2c(nc(Cc3ccc(F)cc3)nc2-c2ccn(C)n2)C1 [Cpd. No. 41, 1-(2-(4-fluorobenzyl)-4-(1-methyl-1H-pyrazol-3-yl)-5,8-dihydropyrido[3,4-d]pyrimidin-7(6H)-yl)prop-2-en-1-one] | < 1000 nM
CCC(=O)N1CCc2c(nc(Cc3ccc(F)cc3)nc2-c2ccn(C)n2)C1 [Cpd. No. 42, 1-(2-(4-fluorobenzyl)-4-(1-methyl-1H-pyrazol-3-yl)-5,8-dihydropyrido[3,4-d]pyrimidin-7(6H)-yl)propan-1-one] | > 3000 nM
CCC(=O)N1CCc2c(nc(Cc3cccc(F)c3)nc2-c2ccn(C)n2)C1 [Cpd. No. 44, 1-(2-(3-fluorobenzyl)-4-(1-methyl-1H-pyrazol-3-yl)-5,8-dihydropyrido[3,4-d]pyrimidin-7(6H)-yl)propan-1-one] | > 3000 nM
C=CC(=O)N1CCc2c(nc(Cc3ccc(C(F)(F)F)cc3)nc2-c2ccn(C)n2)C1 [Cpd. No. 45, 1-(4-(1-methyl-1H-pyrazol-3-yl)-2-(4-(trifluoromethyl)benzyl)-5,8-dihydropyrido[3,4-d]pyrimidin-7(6H)-yl)prop-2-en-1-one] | < 1000 nM
CCC(=O)N1CCc2c(nc(Cc3ccc(C(F)(F)F)cc3)nc2-c2ccn(C)n2)C1 [Cpd. No. 47, 1-(4-(1-methyl-1H-pyrazol-3-yl)-2-(4-(trifluoromethyl)benzyl)-5,8-dihydropyrido[3,4-d]pyrimidin-7(6H)-yl)propan-1-one] | > 3000 nM
CCC(=O)N1CCc2c(nc(Cc3cccc(C(F)(F)F)c3)nc2-c2ccn(C)n2)C1 [Cpd. No. 48, 1-(4-(1-methyl-1H-pyrazol-3-yl)-2-(3-(trifluoromethyl)benzyl)-5,8-dihydropyrido[3,4-d]pyrimidin-7(6H)-yl)propan-1-one] | 1000 to 3000 nM
C=CC(=O)N1CCc2c(nc(Cc3cccc(C(F)(F)F)c3)nc2-c2ccn(Cc3cccnc3)n2)C1 [Cpd. No. 50, 1-(4-(1-(pyridin-3-ylmethyl)-1H-pyrazol-3-yl)-2-(3-(trifluoromethyl)benzyl)-5,8-dihydropyrido[3,4-d]pyrimidin-7(6H)-yl)prop-2-en-1-one] | < 1000 nM
C=CC(=O)N1CCc2c(nc(-c3ccccc3)nc2-c2cnn(C)c2)C1 [Cpd. No. 56] | < 1000 nM
C=CC(=O)N1CCc2c(nc(-c3ccccc3)nc2-c2cnn(C(C)C)c2)C1 [Cpd. No. 57, 1-(4-(1-isopropyl-1H-pyrazol-4-yl)-2-phenyl-5,8-dihydropyrido[3,4-d]pyrimidin-7(6H)-yl)prop-2-en-1-one] | 1000 to 3000 nM
C=CC(=O)N1CCc2c(nc(-c3ccccc3)nc2C(=O)NCc2cccnc2)C1 [Cpd. No. 58, 7-acryloyl-2-phenyl-N-(pyridin-3-ylmethyl)-5,6,7,8-tetrahydropyrido[3,4-d]pyrimidine-4-carboxamide] | 1000 to 3000 nM
C=CC(=O)N1CCc2c(nc(-c3ccccc3)nc2-c2ccn(CC)n2)C1 [Cpd. No. 59, 1-(4-(1-ethyl-1H-pyrazol-3-yl)-2-phenyl-5,8-dihydropyrido[3,4-d]pyrimidin-7(6H)-yl)prop-2-en-1-one] | < 1000 nM
C=CC(=O)N1CCc2c(nc(-c3ccccc3)nc2-c2ccn(C(C)C)n2)C1 [Cpd. No. 60, 1-(4-(1-isopropyl-1H-pyrazol-3-yl)-2-phenyl-5,8-dihydropyrido[3,4-d]pyrimidin-7(6H)-yl)prop-2-en-1-one] | < 1000 nM
C=CC(=O)N1CCc2c(nc(-c3ccccc3)nc2-c2cnn(C(F)F)c2)C1 [Cpd. No. 61, 1-(4-(1-(difluoromethyl)-1H-pyrazol-4-yl)-2-phenyl-5,8-dihydropyrido[3,4-d]pyrimidin-7(6H)-yl)prop-2-en-1-one] | 1000 to 3000 nM
C=CC(=O)N1CCc2c(nc(-c3ccccc3)nc2-c2ccnn2C)C1 [Cpd. No. 62, 1-(4-(1-methyl-1H-pyrazol-5-yl)-2-phenyl-5,8-dihydropyrido[3,4-d]pyrimidin-7(6H)-yl)prop-2-en-1-one] | 1000 to 3000 nM
C=CC(=O)N1CCc2c(nc(-c3ccccc3)nc2-c2cccnc2)C1 [Cpd. No. 63, 1-(2-phenyl-4-(pyridin-3-yl)-5,8-dihydropyrido[3,4-d]pyrimidin-7(6H)-yl)prop-2-en-1-one] | < 1000 nM
C=CC(=O)N1CCc2c(nc(-c3ccccc3)nc2-c2ccccc2)C1 [Cpd. No. 64, 1-(2,4-diphenyl-5,8-dihydropyrido[3,4-d]pyrimidin-7(6H)-yl)prop-2-en-1-one] | < 1000 nM
C=CC(=O)N1CCc2c(nc(-c3ccccc3)nc2-c2ccncc2)C1 [Cpd. No. 66, 1-(2-phenyl-4-(pyridin-4-yl)-5,8-dihydropyrido[3,4-d]pyrimidin-7(6H)-yl)prop-2-en-1-one] | 1000 to 3000 nM
C=CC(=O)N1CCc2c(nc(-c3ccccc3)nc2-c2ccccn2)C1 [Cpd. No. 67, 1-(2-phenyl-4-(pyridin-2-yl)-5,8-dihydropyrido[3,4-d]pyrimidin-7(6H)-yl)prop-2-en-1-one] | < 1000 nM
C=CC(=O)N1CCc2cnc(-c3ccccc3)nc2C1 [Cpd. No. 68, 1-(2-phenyl-5,8-dihydropyrido[3,4-d]pyrimidin-7(6H)-yl)prop-2-en-1-one] | < 1000 nM
C=CC(=O)N1CCc2c(nc(-c3ccc(F)cc3)nc2-c2ccn(C(F)F)n2)C1 [Cpd. No. 70, 1-(4-(1-(difluoromethyl)-1H-pyrazol-3-yl)-2-(4-fluorophenyl)-5,8-dihydropyrido[3,4-d]pyrimidin-7(6H)-yl)prop-2-en-1-one] | < 1000 nM
